Values joined by “and” are separate entries in the source; they are usually repeats but may differ in a detail not shown here. Equal values may be shown once. “Also recorded” adds a separate entry of the source. Read-outs that look alike come from different tables or passages of the source.
How the values were obtained:
[1] = system: P. graminis f. sp. tritici; format: in vivo, Puccinia graminis f. sp. tritici
[2] = system: Colletotrichum lagenarium; assay: Infection of National Pickling cucumber plants by cucumber anthracnose
[3] = system: P. recondita f. sp. tritici; format: in vivo, Puccinia recondita f. sp. tritici
Podosphaera leucotricha = assay: Infection of apple by powdery mildew; format: in vivo; conditions: 5 mM
bean rust uredospores = assay: Germination and differentiation of bean rust uredospores in agar; format: cell-based, Uromyces phaseoli; conditions: for inhibition at 100 µM / inhibition at 500 µM / inhibition at 1000 µM / inhibition at 5000 µM: Uromyces phaseoli
PA titers of bean leaves = assay: Polyamine titers in leaves of sprayed bean plants; format: in vivo, Phaseolus vulgaris
Protocol: PA analysis was performed on leaf samples collected from inhibitor-sprayed bean plants. Leaf samples were ground in prechilled mortars with 10% (w/v) HClO4 at a ratio of 200 mg fresh weight leaf per ml HClO4. Homogenates were centrifuged at 26,00 g for 20 minutes at 4° C. The clear supernatant fractions were used for dansylation according to a procedure previously described. Briefly, 0.4 ml of freshly prepared dansyl (Diaminonaphthylsulfonyl)-C1 (Sigma), 5 mg/ml in acetone, and 0.2 ml of saturated Na2 CO3 were added to 0.2 ml of the supernatant fraction. The dansylated PA were extracted with 0.25 ml benzene and the clear benzene layer was used for PA determinations by TLC on LK6D high resolution silica gel plates (Whatman). After development in chloroform:triethylamine (25:2 v/v) for about 1 hour and location by fluorescence under a UV lamp, the dansylpolyamine bands were scraped off, eluted in 4 ml of ethyl acetate and quantified with an Aminco-Bowman fluorimeter.
The effect of DFMO and DFMA sprays (0.01, 0.1, and 1.0 mM) on PA titers was also examined. Unifoliolate leaves were sprayed in the usual way and examined 1 and 3 days later, while the first trifolioloate leaves, unexpanded ata the time of spray and themselves unsprayed, were examined 8 days later.

[4] = system: bean plants (Phaseolus vulgaris cv Pinto); assay: Effect of sprays on growth and appearance of bean plants; format: in vivo
Protocol: Unifoliolate leaves of 10-day-old bean seedlings were sprayed (400 ul per leaf) with DFMO or alpha-difluoromethylarginine (DFMA) at concentrations of 0.01-5 mM, before or after inoculation with uredospores of the bean rust, Uromyces phaseoli, Race 0. The inhibitor solutions were prepared in 0.01% Tween 20, with the pH adjusted to 7.0. Control plants without inhibitor were sprayed similarly and were allowed to dry before inoculation with the pathogen. After inoculation with rust uredospores (25 mg/100 ml of 0.01% Tween 20) all plants were placed in dew chambers (100% relative humidity) for 16 hours at 19° C. in total darkness. After exposures to inhibitors and uredospores, all plants were returned to the greenhouse and arranged randomly. Disease severity was evaluated 7 days after inoculation by counting foliar lesions. In control plants and those treated with low concentrations of DFMO, uredospores were collected randomly from each treatment to determine percent germination and pathogenicity. For determination of germination, spores were dusted onto Petri plates containing 10 mM 2-(N-morpholino)ethanesulfonic acid (Mes) at pH 7.0, 3 mM CaCl2, 2 mM MgSO4, and 1% purified agar, and incubated for 3 hr at 19° C. in the light.

Uromyces phaseoli = assay: Bean rust lesions on unifoliolate leaves of Pinto bean sprayed before or after inoculation; format: in vivo
Erysiphe polygoni = assay: Infection by bean powdery mildew; format: in vivo
Puccinia sorghi = assay: Infection by corn rust; format: in vivo
Erysiphe graminis = assay: Wheat powdery mildew infection, colonies per plant
Protocol: With wheat powdery mildew (E. graminis) 10-day-old seedlings were sprayed with solutions of DFMA or DFMO from 0.01 to 5.0 mM before and after inoculation of the plants with conidia. Inoculation occurred naturally in the greenhouse by distributing infected plants among the experimental plants for 24 hours. Infection was evaluated 10 days after inoculation by counting mildew colonies.

[5] = postinoculation exposure, inhibitor 0.01 mM
[6] = postinoculation exposure, inhibitor 0.025 mM
[7] = postinoculation exposure, inhibitor 0.05 mM
[8] = postinoculation exposure, inhibitor 0.075 mM
[9] = postinoculation exposure, inhibitor 0.10 mM
[10] = postinoculation exposure, inhibitor 0.25 mM
[11] = postinoculation exposure, inhibitor 0.50 mM
[12] = postinoculation exposure, inhibitor 1.0 mM
[13] = postinoculation exposure, inhibitor 5.0 mM
[14] = preinoculation exposure, inhibitor 0.01 mM
[15] = preinoculation exposure, inhibitor 0.025 mM
[16] = preinoculation exposure, inhibitor 0.05 mM
[17] = preinoculation exposure, inhibitor 0.075 mM
[18] = preinoculation exposure, inhibitor 0.10 mM
[19] = preinoculation exposure, inhibitor 0.25 mM
[20] = preinoculation exposure, inhibitor 0.50 mM
[21] = preinoculation exposure, inhibitor 1.0 mM
[22] = preinoculation exposure, inhibitor 5.0 mM

Compound: NCCCC(N)(C(=O)O)C(F)F (racemic) [DFMO, DL-alpha-difluorimethylornithine]
- % control ([1]; post-inoculation, 0.01 mM): 36%
- Uredia/plant ([1]; post-inoculation, 0.01 mM): 134 Uredia/plant
- % control ([1]; post-inoculation, 0.025 mM): 44%
- Uredia/plant ([1]; post-inoculation, 0.025 mM): 117 Uredia/plant
- % control ([1]; post-inoculation, 0.065 mM): 55%
- Uredia/plant ([1]; post-inoculation, 0.065 mM): 94 Uredia/plant
- % control ([1]; post-inoculation, 0.10 mM): 76%
- Uredia/plant ([1]; post-inoculation, 0.10 mM): 51 Uredia/plant
- % control ([1]; post-inoculation, 0.13 mM): 77%
- Uredia/plant ([1]; post-inoculation, 0.13 mM): 49 Uredia/plant
- % control ([1]; post-inoculation, 0.16 mM): 81%
- Uredia/plant ([1]; post-inoculation, 0.16 mM): 40 Uredia/plant
- % control ([1]; post-inoculation, 0.20 mM): 82%
- Uredia/plant ([1]; post-inoculation, 0.20 mM): 37 Uredia/plant
- % control ([1]; post-inoculation, 1.00 mM): 92%
- Uredia/plant ([1]; post-inoculation, 1.00 mM): 17 Uredia/plant
- ED50, wheat stem rust ([1]; pre-inoculation treatment): 560 µM
- % control ([1]; pre-inoculation, 0.01 mM): 8%
- Uredia/plant ([1]; pre-inoculation, 0.01 mM): 194 Uredia/plant
- % control ([1]; pre-inoculation, 0.025 mM): 17%
- Uredia/plant ([1]; pre-inoculation, 0.025 mM): 175 Uredia/plant
- % control ([1]; pre-inoculation, 0.065 mM): 13%
- Uredia/plant ([1]; pre-inoculation, 0.065 mM): 182 Uredia/plant
- % control ([1]; pre-inoculation, 0.10 mM): 13%
- Uredia/plant ([1]; pre-inoculation, 0.10 mM): 183 Uredia/plant
- % control ([1]; pre-inoculation, 0.13 mM): 19%
- Uredia/plant ([1]; pre-inoculation, 0.13 mM): 170 Uredia/plant
- % control ([1]; pre-inoculation, 0.16 mM): 32%
- Uredia/plant ([1]; pre-inoculation, 0.16 mM): 143 Uredia/plant
- % control ([1]; pre-inoculation, 0.20 mM): 32%
- Uredia/plant ([1]; pre-inoculation, 0.20 mM): 143 Uredia/plant
- % control ([1]; pre-inoculation, 1.00 mM): 57%
- Uredia/plant ([1]; pre-inoculation, 1.00 mM): 91 Uredia/plant
- Lesions per plant ([2]; 1.0 mM): 69 per plant
- Percent control ([2]; 1.0 mM): 14%
- Lesions per plant ([2]; 5.0 mM): 69 per plant
- Percent control ([2]; 5.0 mM): 14%
- Lesions per plant ([2]; 10.0 mM): 70 per plant
- Percent control ([2]; 10.0 mM): 14%
- % control ([3]; 0.01 mM): 45% and 60%
- Uredia/plant ([3]; 0.01 mM): 44 Uredia/plant and 32 Uredia/plant
- % control ([3]; 0.025 mM): 51% and 66%
- Uredia/plant ([3]; 0.025 mM): 39 Uredia/plant and 27 Uredia/plant
- % control ([3]; 0.13 mM): 55% and 90%
- % control ([3]; 0.16 mM): 52% and 92%
- % control ([3]; 0.20 mM): 65% and 95%
- % control ([3]; 1.00 mM): 72% and 100%
- % control ([3]; in vivo): 52% and 82%
- Percent control (Podosphaera leucotricha): 48.6%
- Differentiation % (bean rust uredospores; 0.1 mM): 46%
- Germination % (bean rust uredospores; 0.1 mM): 32%
- Differentiation % (bean rust uredospores; 0.5 mM): 35%
- Germination % (bean rust uredospores; 0.5 mM): 32%
- Differentiation % (bean rust uredospores; 1.0 mM): 30%
- Germination % (bean rust uredospores; 1.0 mM): 32%
- Differentiation % (bean rust uredospores; 5.0 mM): 19%
- Germination % (bean rust uredospores; 5.0 mM): 22%
- inhibition at 100 µM (bean rust uredospores; 0.1 mM, read-out: Differentiation % Inhibiton): 22%
- inhibition at 100 µM (bean rust uredospores; 0.1 mM, read-out: Germination % Inhibition): 24%
- inhibition at 500 µM (bean rust uredospores; 0.5 mM, read-out: Differentiation % Inhibiton): 41%
- inhibition at 500 µM (bean rust uredospores; 0.5 mM, read-out: Germination % Inhibition): 24%
- inhibition at 1000 µM (bean rust uredospores; 1.0 mM, read-out: Differentiation % Inhibiton): 49%
- inhibition at 1000 µM (bean rust uredospores; 1.0 mM, read-out: Germination % Inhibition): 24%
- inhibition at 5000 µM (bean rust uredospores; 5.0 mM, read-out: Differentiation % Inhibiton): 68%
- inhibition at 5000 µM (bean rust uredospores; 5.0 mM, read-out: Germination % Inhibition): 48%
- Put and Spd titers (PA titers of bean leaves; highest concentration of DFMO): increased
- PA levels in treated leaves (PA titers of bean leaves; sprays 0.01, 0.1 and 1.0 mM, 1, 3 and 8 days later): no significant reductions
- appearance, growth and development of sprayed bean plants ([4]; all concentrations, as high as 5 mM): looked healthy, exhibiting no malformation or reduction in growth rate; also recorded: no apparent effect on growth and development of the plant
- growth of the bean plants ([4]; sprays 0.01, 0.1 and 1.0 mM): no effect
- protection against infection (Uromyces phaseoli; 400 ul of 0.25 mM applied to a single leaf): complete protection
- disease symptoms / protection against bean rust (Uromyces phaseoli; DFMO at 0.5 mM or higher, pre- and postinoculation, 400 ul per leaf): No disease symptoms could be detected; also recorded: complete protection
- germination or pathogenicity of uredospores collected from treated plants (Uromyces phaseoli; plants treated with low concentrations): no decrease in germination or pathogenicity
- delay of uredial appearance (Uromyces phaseoli; postinoculation exposure, lower concentrations, dose-dependent): 2 to 6 days
- Lesions per cm^2 (Uromyces phaseoli; [5]): 40 ± 5 per cm^2
- Lesions per leaf (Uromyces phaseoli; [5]): 1888 ± 249 per leaf
- Lesions per cm^2 (Uromyces phaseoli; [6]): 28 ± 2 per cm^2
- Lesions per leaf (Uromyces phaseoli; [6]): 1526 ± 160 per leaf
- Lesions per cm^2 (Uromyces phaseoli; [7]): 17 ± 2 per cm^2
- Lesions per leaf (Uromyces phaseoli; [7]): 1026 ± 131 per leaf
- Lesions per cm^2 (Uromyces phaseoli; [8]): 12 ± 1 per cm^2
- Lesions per leaf (Uromyces phaseoli; [8]): 669 ± 96 per leaf
- Lesions per cm^2 (Uromyces phaseoli; [9]): 5 ± 1 per cm^2
- Lesions per leaf (Uromyces phaseoli; [9]): 221 ± 39 per leaf
- Lesions per cm^2 (Uromyces phaseoli; [10]): 2 ± 1 per cm^2
- Lesions per leaf (Uromyces phaseoli; [10]): 73 ± 4 per leaf
- Lesions per cm^2 (Uromyces phaseoli; [11]): 0 per cm^2
- Lesions per leaf (Uromyces phaseoli; [11]): 0 per leaf
- Lesions per cm^2 (Uromyces phaseoli; [12]): 0 per cm^2
- Lesions per leaf (Uromyces phaseoli; [12]): 0 per leaf
- Lesions per cm^2 (Uromyces phaseoli; [13]): 0 per cm^2
- Lesions per leaf (Uromyces phaseoli; [13]): 0 per leaf
- Lesions per cm^2 (Uromyces phaseoli; [14]): 47 ± 6 per cm^2
- Lesions per leaf (Uromyces phaseoli; [14]): 2677 ± 397 per leaf
- Lesions per cm^2 (Uromyces phaseoli; [15]): 34 ± 1 per cm^2
- Lesions per leaf (Uromyces phaseoli; [15]): 2071 ± 103 per leaf
- Lesions per cm^2 (Uromyces phaseoli; [16]): 29 ± 4 per cm^2
- Lesions per leaf (Uromyces phaseoli; [16]): 1712 ± 375 per leaf
- Lesions per cm^2 (Uromyces phaseoli; [17]): 19 ± 2 per cm^2
- Lesions per leaf (Uromyces phaseoli; [17]): 1177 ± 159 per leaf
- Lesions per cm^2 (Uromyces phaseoli; [18]): 14 ± 2 per cm^2
- Lesions per leaf (Uromyces phaseoli; [18]): 659 ± 104 per leaf
- Lesions per cm^2 (Uromyces phaseoli; [19]): 2 ± 1 per cm^2
- Lesions per leaf (Uromyces phaseoli; [19]): 85 ± 20 per leaf
- Lesions per cm^2 (Uromyces phaseoli; [20]): 0 per cm^2
- Lesions per leaf (Uromyces phaseoli; [20]): 0 per leaf
- Lesions per cm^2 (Uromyces phaseoli; [21]): 0 per cm^2
- Lesions per leaf (Uromyces phaseoli; [21]): 0 per leaf
- Lesions per cm^2 (Uromyces phaseoli; [22]): 0 per cm^2
- Lesions per leaf (Uromyces phaseoli; [22]): 0 per leaf
- Percent control (Erysiphe polygoni; 5 mM): 45%
- Percent control (Erysiphe polygoni; 10 mM): 52% and ~50%
- Percent control (Puccinia sorghi; 0.01 mM): 43.5%
- Percent control (Puccinia sorghi; 0.025 mM): 38.4%
- Percent control (Puccinia sorghi; 0.065 mM): 37.4%
- Percent control (Puccinia sorghi; 0.10 mM): 63.1%
- Percent control (Puccinia sorghi; 0.13 mM): 67.7%
- Percent control (Puccinia sorghi; 0.16 mM): 88.7% and ~90%
- Percent control (Puccinia sorghi; 0.20 mM): 88.4%
- Percent control (Puccinia sorghi; 1.00 mM): 94.9%
- EC50 (Puccinia sorghi; Puccinia sorghi, read-out: concentration providing 50% protection against corn rust): < 100 µM
- % control (Erysiphe graminis; post-inoculation, 0.01 mM): 19%
- Colonies/plant (Erysiphe graminis; post-inoculation, 0.01 mM): 30 Colonies/plant
- % control (Erysiphe graminis; post-inoculation, 0.025 mM): 30%
- Colonies/plant (Erysiphe graminis; post-inoculation, 0.025 mM): 26 Colonies/plant
- % control (Erysiphe graminis; post-inoculation, 0.065 mM): 46%
- Colonies/plant (Erysiphe graminis; post-inoculation, 0.065 mM): 20 Colonies/plant
- % control (Erysiphe graminis; post-inoculation, 0.10 mM): 68%
- Colonies/plant (Erysiphe graminis; post-inoculation, 0.10 mM): 12 Colonies/plant
- % control (Erysiphe graminis; post-inoculation, 0.20 mM): 68%
- Colonies/plant (Erysiphe graminis; post-inoculation, 0.20 mM): 12 Colonies/plant
- % control (Erysiphe graminis; post-inoculation, 1.00 mM): 76%
- Colonies/plant (Erysiphe graminis; post-inoculation, 1.00 mM): 9 Colonies/plant
- % control (Erysiphe graminis; post-inoculation, 5.00 mM): 89%
- Colonies/plant (Erysiphe graminis; post-inoculation, 5.00 mM): 4 Colonies/plant
- % control (Erysiphe graminis; pre-inoculation, 0.01 mM): 41%
- Colonies/plant (Erysiphe graminis; pre-inoculation, 0.01 mM): 22 Colonies/plant
- % control (Erysiphe graminis; pre-inoculation, 0.025 mM): 35%
- Colonies/plant (Erysiphe graminis; pre-inoculation, 0.025 mM): 24 Colonies/plant
- % control (Erysiphe graminis; pre-inoculation, 0.065 mM): 46%
- Colonies/plant (Erysiphe graminis; pre-inoculation, 0.065 mM): 20 Colonies/plant
- % control (Erysiphe graminis; pre-inoculation, 0.10 mM): 51%
- Colonies/plant (Erysiphe graminis; pre-inoculation, 0.10 mM): 18 Colonies/plant
- % control (Erysiphe graminis; pre-inoculation, 0.20 mM): 46%
- Colonies/plant (Erysiphe graminis; pre-inoculation, 0.20 mM): 20 Colonies/plant
- % control (Erysiphe graminis; pre-inoculation, 1.00 mM): 66%
- Colonies/plant (Erysiphe graminis; pre-inoculation, 1.00 mM): 13 Colonies/plant
- % control (Erysiphe graminis; pre-inoculation, 5.00 mM): 95%
- Colonies/plant (Erysiphe graminis; pre-inoculation, 5.00 mM): 2 Colonies/plant
